Measurements as given in US20250129074A1, “CHIMERIC COMPOUND FOR TARGETED DEGRADATION OF ANDROGEN RECEPTOR PROTEIN, PREPARATION METHOD THEREFOR, AND MEDICAL USE THEREOF” (Jiangsu Hengrui Pharmaceuticals Co., Ltd., priority 2021, published 2025).
Like-named read-outs stand apart in the source and are kept apart here.

What was measured:
androgen receptor (AR) = biological target: T1, androgen receptor (AR) (Homo sapiens, UniProt P10275, T878A); experiment: Degradation activity on androgen receptor in LNCaP cells (AR ELISA); assay type: cell-based; details: for Dmax: read-out: Max (maximum AR degradation rate)
T1 construct: host or cells: LNCaP human prostate cancer cells
T1 sequence (P10275 1-920 T878A): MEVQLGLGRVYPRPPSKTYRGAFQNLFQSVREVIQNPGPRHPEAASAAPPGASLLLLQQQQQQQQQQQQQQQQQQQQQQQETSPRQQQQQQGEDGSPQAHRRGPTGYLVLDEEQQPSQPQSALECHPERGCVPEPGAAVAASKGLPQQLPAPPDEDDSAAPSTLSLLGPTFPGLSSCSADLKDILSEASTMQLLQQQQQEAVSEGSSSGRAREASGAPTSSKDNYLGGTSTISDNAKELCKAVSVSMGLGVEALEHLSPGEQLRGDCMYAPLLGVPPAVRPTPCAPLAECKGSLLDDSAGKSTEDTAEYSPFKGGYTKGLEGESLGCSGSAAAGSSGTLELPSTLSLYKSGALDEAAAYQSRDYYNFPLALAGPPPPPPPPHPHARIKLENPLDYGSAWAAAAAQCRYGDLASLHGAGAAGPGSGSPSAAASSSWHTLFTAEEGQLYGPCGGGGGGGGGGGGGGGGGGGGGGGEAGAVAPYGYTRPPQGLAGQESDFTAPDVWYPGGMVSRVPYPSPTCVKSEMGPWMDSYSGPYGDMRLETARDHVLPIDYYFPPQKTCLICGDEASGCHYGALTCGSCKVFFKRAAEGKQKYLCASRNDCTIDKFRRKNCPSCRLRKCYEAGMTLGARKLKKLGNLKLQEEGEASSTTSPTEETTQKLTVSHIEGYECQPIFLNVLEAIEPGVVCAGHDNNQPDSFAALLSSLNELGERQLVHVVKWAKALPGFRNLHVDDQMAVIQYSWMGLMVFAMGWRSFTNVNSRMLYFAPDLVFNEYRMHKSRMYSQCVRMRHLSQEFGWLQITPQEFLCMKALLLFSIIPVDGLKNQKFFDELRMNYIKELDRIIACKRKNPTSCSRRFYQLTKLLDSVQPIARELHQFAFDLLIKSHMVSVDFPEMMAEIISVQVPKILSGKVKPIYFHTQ
Experimental: The plate was incubated in a 37° C., 5% CO2 cell incubator for three days. […] A blank control cell well containing 0.5% DMSO was set up. The plate was incubated in a 37° C., 5% CO2 cell incubator for 24 hours. […] The lysate was well mixed by pipetting up and down and then centrifuged at 4000 rpm at 4° C. for 10 minutes. […] The plate was sealed and incubated in a 37° C. incubator for 1 hour. […] The plate was sealed and then incubated in a 37° C. incubator for 30 minutes.

LNCaP cells = experiment: Inhibition of LNCaP proliferation (CellTiter-Glo); assay type: cell-based; details: Homo sapiens, 144 h, 0.1 nM R1881, six days; for Emax: read-out: Max (maximum proliferation inhibition rate)
Experimental: The plate was incubated in a 37° C., 5% CO2 cell incubator for three days. […] A blank control cell well containing 0.5% DMSO and a cell-free vehicle control well were set up. The plate was incubated in a 37° C., 5% CO2 cell incubator for six days.

[1] = 0.1 nM R1881, 24 hours, read-out: LNCaP DC50
[2] = read-out: LNCaP DC50, 0.1 nM R1881, 24 hours

| SMILES | DC50 (androgen receptor (AR); [1]) [nM] | Dmax (androgen receptor (AR); 0.1 nM R1881, 24 hours) [%] | IC50 (LNCaP cells) [nM] | Emax (LNCaP cells) [%] | DC50 (androgen receptor (AR); [2]) [nM] |
| --- | --- | --- | --- | --- | --- |
| C[C@H]1CC2(CCN(c3ccc(C(=O)N4CCC(CN5CCC(N6CCN(c7ccc(N8CCC(=O)NC8=O)cc7)CC6)CC5)CC4)cc3)CC2)CN1c1ccc(C#N)c(Cl)c1 [Example 9, (S)-2-Chloro-4-(8-(4-(4-((4-(4-(4-(2,4-dioxotetrahydropyrimidin-1(2H)-yl)phenyl)piperazin-1-yl)piperidin-1-yl)methyl)piperidine-1-carbonyl)phenyl)-3-methyl-2,8-diazaspiro[4.5]decan-2-yl)benzonitrile] | 12.9 | 92 | 69 | 59 |  |
| C[C@H]1CC2(CCN(c3ccc(C(=O)N4CCC(N5CC(N6CCN(c7ccc(N8CCC(=O)NC8=O)cc7)CC6)C5)CC4)cc3)CC2)CN1c1ccc(C#N)c(Cl)c1 [Example 7, (S)-2-Chloro-4-(8-(4-(4-(3-(4-(4-(2,4-dioxotetrahydropyrimidin-1(2H)-yl)phenyl)piperazin-1-yl)azetidin-1-yl)piperidine-1-carbonyl)phenyl)-3-methyl-2,8-diazaspiro[4.5]decan-2-yl)benzonitrile] | 1 | 93 | 4.6 | 53 |  |
| C[C@H]1CC2(CCN(c3ccc(C(=O)N4CCC5(CCC(N6CCN(c7ccc(N8CCC(=O)NC8=O)cc7)CC6)CC5)CC4)cc3)CC2)CN1c1ccc(C#N)c(Cl)c1 [Example 29, (S)-2-Chloro-4-(8-(4-(9-(4-(4-(2,4-dioxotetrahydropyrimidin-1(2H)-yl)phenyl)piperazin-1-yl)-3-azaspiro[5.5]undecane-3-carbonyl)phenyl)-3-methyl-2,8-diazaspiro[4.5]decan-2-yl)benzonitrile] | 12 | 93 | 81 | 45 |  |
| C[C@H]1CC2(CCN(c3ccc(C(=O)N4CCC5(CC4)CC(N4CCN(c6cccc(N7CCC(=O)NC7=O)c6)CC4)C5)cc3)CC2)CN1c1ccc(C#N)c(Cl)c1 [Example 35, (S)-2-Chloro-4-(8-(4-(2-(4-(3-(2,4-dioxotetrahydropyrimidin-1(2H)-yl)phenyl)piperazin-1-yl)-7-azaspiro[3.5]nonane-7-carbonyl)phenyl)-3-methyl-2,8-diazaspiro[4.5]decan-2-yl)benzonitrile] | 5.2 | 88 | 31 | 57 |  |
| C[C@H]1CC2(CCN(c3ccc(C(=O)N4CCC5(CC4)CC(N4CCN(c6ccc(N7CCC(=O)NC7=O)cc6)CC4)C5)cc3F)CC2)CN1c1ccc(C#N)c(Cl)c1 [Example 30, (S)-2-Chloro-4-(8-(4-(2-(4-(4-(2,4-dioxotetrahydropyrimidin-1(2H)-yl)phenyl)piperazin-1-yl)-7-azaspiro[3.5]nonane-7-carbonyl)-2-fluorophenyl)-3-methyl-2,8-diazaspiro[4.5]decan-2-yl)benzonitrile] | 4.2 | 96 | 7.2 | 52 |  |
| C[C@H]1CC2(CCN(c3ccc(C(=O)N4CCC(N5CCN(c6ccc(C(=O)NC7CCC(=O)NC7=O)nc6)CC5)CC4)cc3)CC2)CN1c1ccc(C#N)c(Cl)c1 (stereo partly drawn) [Example 2, 5-(4-(1-(4-((S)-2-(3-Chloro-4-cyanophenyl)-3-methyl-2,8-diazaspiro[4.5]decan-8-yl)benzoyl)piperidin-4-yl)piperazin-1-yl)-N-(2,6-dioxopiperidin-3-yl)picolinamide] |  | 90 | 164 | 62 | 5.1 |
| C[C@H]1CC2(CCN(c3ccc(C(=O)N4CCC(CN5CCN(c6cccc(NC7CCC(=O)NC7=O)c6)CC5)CC4)cc3)CC2)CN1c1ccc(C#N)c(C(F)(F)F)c1 (stereo partly drawn) [Example 41, 4-((3S)-8-(4-(4-((4-(3-((2,6-Dioxopiperidin-3-yl)amino)phenyl)piperazin-1-yl)methyl)piperidine-1-carbonyl)phenyl)-3-methyl-2,8-diazaspiro[4.5]decan-2-yl)-2-(trifluoromethyl)benzonitrile] | 17.1 | 96 | 98 | 56 |  |
| C[C@H]1CC2(CCN(c3ccc(C(=O)N4CCC(N5CCC(N6CCN(c7ccc(N8CCC(=O)NC8=O)cc7)CC6)CC5)CC4)cc3)CC2)CN1c1ccc(C#N)c(Cl)c1 [Example 6, (S)-2-Chloro-4-(8-(4-(4-(4-(4-(2,4-dioxotetrahydropyrimidin-1(2H)-yl)phenyl)piperazin-1-yl)-[1,4′-bipiperidine]-1′-carbonyl)phenyl)-3-methyl-2,8-diazaspiro[4.5]decan-2-yl)benzonitrile] | 5.7 | 86 | 24.6 | 50 |  |
| C[C@H]1CC2(CCN(c3ccc(C(=O)N4CCC5(CC4)CC(N4CCN(c6ccc(C7CCC(=O)NC7=O)cc6)CC4)C5)cc3)CC2)CN1c1ccc(C#N)c(Cl)c1 (stereo partly drawn) [Example 34, 2-Chloro-4-((3S)-8-(4-(2-(4-(4-(2,6-dioxopiperidin-3-yl)phenyl)piperazin-1-yl)-7-azaspiro[3.5]nonane-7-carbonyl)phenyl)-3-methyl-2,8-diazaspiro[4.5]decan-2-yl)benzonitrile] | 5 | 96 | 12 | 60 |  |
| C[C@H]1CC2(CCN(c3ccc(C(=O)N4CCC(CN5CC(N6CCN(c7ccc(N8CCC(=O)NC8=O)cc7)CC6)C5)CC4)cc3)CC2)CN1c1ccc(C#N)c(Cl)c1 [Example 8, (S)-2-Chloro-4-(8-(4-(4-((3-(4-(4-(2,4-dioxotetrahydropyrimidin-1(2H)-yl)phenyl)piperazin-1-yl)azetidin-1-yl)methyl)piperidine-1-carbonyl)phenyl)-3-methyl-2,8-diazaspiro[4.5]decan-2-yl)benzonitrile] | 1.6 | 85 | 9.8 | 31 |  |
| C[C@H]1CC2(CCN(c3ccc(C(=O)N4CCC(N5CCN(c6cccc(NC7CCC(=O)NC7=O)c6)CC5)CC4)cc3)CC2)CN1c1ccc(C#N)c(Cl)c1 (stereo partly drawn) [Example 10, 2-Chloro-4-((3S)-8-(4-(4-(4-(3-((2,6-dioxopiperidin-3-yl)amino)phenyl)piperazin-1-yl)piperidine-1-carbonyl)phenyl)-3-methyl-2,8-diazaspiro[4.5]decan-2-yl)benzonitrile] | 2.5 | 97 | 93 | 70 |  |
| C[C@H]1CC2(CCN(c3cnc(C(=O)N4CCC(CN5CCN(c6cccc(NC7CCC(=O)NC7=O)c6)CC5)CC4)cn3)CC2)CN1c1ccc(C#N)c(Cl)c1 (stereo partly drawn) [Example 17, 2-Chloro-4-((3S)-8-(5-(4-((4-(3-((2,6-dioxopiperidin-3-yl)amino)phenyl)piperazin-1-yl)methyl)piperidine-1-carbonyl)pyrazin-2-yl)-3-methyl-2,8-diazaspiro[4.5]decan-2-yl)benzonitrile] |  | 97 | 112 | 74 | 3 |
| C[C@H]1CC2(CCN(c3ccc(C(=O)N4CCC(CN5CCN(c6cccc(NC7CCC(=O)NC7=O)c6)CC5)CC4)cn3)CC2)CN1c1ccc(C#N)c(Cl)c1 (stereo partly drawn) [Example 18, 2-Chloro-4-((3S)-8-(5-(4-((4-(3-((2,6-dioxopiperidin-3-yl)amino)phenyl)piperazin-1-yl)methyl)piperidine-1-carbonyl)pyridin-2-yl)-3-methyl-2,8-diazaspiro[4.5]decan-2-yl)benzonitrile] | 5.8 | 96 | 123 | 72 |  |
